Some results are limits rather than exact numbers.

Experimental findings from patent US11447460B2, “Compounds and compositions for treating conditions associated with NLRP activity” (Novartis AG, priority 2016, dated 2022) are described below.

The test system of one assay is IL-1β production in PMA-differentiated THP-1 cells. Nature of the assay: IL-1β production in PMA-differentiated THP-1 cells stimulated with gramicidin (hTHP-1 assay, 2% bovine serum; Bioassays 1 and 2). Type of assay: cell-based, human. The settings on record: Homo sapiens, THP-1; hTHP-1 assay containing 2% bovine serum; Table 12, by Example #; read-out: Average IC50 of compounds in hTHP-1 assay. How it is done: IL-1β Production in PMA-Differentiated THP-1 Cells Stimulated with Gramicidin.
Cell culture-THP-1 cells were purchased from the American Type Culture Collection and sub-cultured according to instructions from the supplier. Prior to experiments, cells were cultured in RPMI 1640 containing 10% heat inactivated FBS, penicillin (100 units/ml) and streptomycin (100 μg/ml), and maintained in log phase prior to experimental setup. Prior to the experiment THP-1 were treated with PMA (Phorbol 12-myristate 13-acetate) (10 μg/ml) for 24 hours. The day of the experiment the media was removed and attaching cells were treated with trypsin for 2 minutes, cells were then collected, washed with PBS (phosphate buffer saline), spin down, resuspended in 2% heat inactivated FBS with RPMI at a concentration of 1×10^6 cells/ml, and 100 ul was plated in a 96 well plate. Cells were incubated with compounds for 1 hours and then stimulated with Gramicidin (5 μM) (Enzo) for 2 hours. Cell free supernatant was collected and the production of IL-1β was evaluated by ELISA. Compounds were dissolved in dimethyl sulfoxide (DMSO) and added to the culture medium to achieve desired concentration (e.g. 100, 30, 10, 3, 1, 0.3 or 0.1 μM). A vehicle only control was run concurrently with each experiment. Final DMSO concentration was 1%.
THP-1 cells were purchased from the American Type Culture Collection and sub-cultured according to instructions from the supplier. Prior to experiments, cells were cultured in complete RPMI 1640 (containing 10% heat inactivated FBS, penicillin (100 units/ml) and streptomycin (100 μg/ml)), and maintained in log phase prior to experimental setup. Prior to the experiment THP-1 were treated with PMA (Phorbol 12-myristate 13-acetate) (20 ng/ml) for 16-18 hours. On the day of the experiment the media was removed and adherent cells were detached with trypsin for 5 minutes. Cells were then harvested, washed with complete RPMI 1640, spun down, resuspended in RPMI 1640 (containing 2% heat inactivated FBS, penicillin (100 units/ml) and streptomycin (100 μg/ml). The cells were plated in a 384-well plate at a density of 50,000 cells/well (final assay volume 50 μl). Compounds were dissolved in dimethyl sulfoxide (DMSO) and added to the culture medium to achieve desired concentration (e.g. 100, 33, 11, 3.7, 1.2, 0.41, 0.14, 0.046, 0.015, 0.0051, 0.0017 μM). Cells were incubated with compounds for 1 hour and then stimulated with gramicidin (5 μM) (Enzo) for 2 hours. Cell free supernatant was collected and the production of IL-10 was evaluated by HTRF (cisbio). A vehicle only control was run concurrently with each experiment. Final DMSO concentration was 0.38%.
Compounds tested with protocols 1 and 2 provided IC50 values that are within the variability of the assay.
Tables 12 and 13 show the biological activity of compounds in hTHP-1 assay containing 2% bovine serum: <1 μM=“++++”; ≥1 and <5 μM=“+++”; ≥5 and <15 μM=“++”; ≥15 and <60 μM=“+”.
With `CC(C)c1cc(F)cc(C(C)C)c1CC(=O)NS(=O)(=O)c1cccc(C(C)(C)O)c1` [Example 25, 2-(4-fluoro-2,6-diisopropylphenyl)-N-(3-(2-hydroxypropan-2-yl)phenylsulfonyl)acetamide], the IC50 is 1 to 5 µM.

`CC(C)c1cc(C#N)cc(C(C)C)c1CC(=O)NS(=O)(=O)c1cccc(C(C)(C)O)c1` [Example 26, 2-(4-cyano-2,6-diisopropylphenyl)-N-(3-(2-hydroxypropan-2-yl)phenylsulfonyl)acetamide]: the IC50 lay within 1 to 5 µM.

`CC(C)c1cc(F)cc(C(C)C)c1CC(=O)NS(=O)(=O)c1cc(Cl)cc(C(C)(C)O)c1` [Example 27, N-(3-chloro-5-(2-hydroxypropan-2-yl)phenylsulfonyl)-2-(4-fluoro-2,6-diisopropylphenyl)acetamide]: the IC50 is 1 to 5 µM.

As to `CC(C)c1cc(C#N)cc(C(C)C)c1CC(=O)NS(=O)(=O)c1cc(Cl)cc(C(C)(C)O)c1` [Example 28, N-(3-chloro-5-(2-hydroxypropan-2-yl)phenylsulfonyl)-2-(4-cyano-2,6-diisopropylphenyl)acetamide], the IC50 lay within 1 to 5 µM.

With `CC(C)c1cc(F)cc(C(C)C)c1CC(=O)NS(=O)(=O)c1cc(-c2ccncc2)cc(C(C)(C)O)c1` [Example 29, 2-(4-fluoro-2,6-diisopropylphenyl)-N-(3-(2-hydroxypropan-2-yl)-5-(pyridin-4-yl)phenylsulfonyl)acetamide], the IC50 fell in the range of 15 to 60 µM.

Take `CC(C)c1cc(F)cc(C(C)C)c1CC(=O)NS(=O)(=O)c1cc(C(C)(C)O)cc(C(C)(C)O)c1` [Example 30, N-(3,5-bis(2-hydroxypropan-2-yl)phenylsulfonyl)-2-(4-fluoro-2,6-diisopropylphenyl)acetamide]: the IC50 was 5 to 15 µM. Turning to `CC(C)c1cc(C#N)cc(C(C)C)c1CC(=O)NS(=O)(=O)c1cc(C(C)(C)O)cc(C(C)(C)O)c1` [Example 31, N-(3,5-bis(2-hydroxypropan-2-yl)phenylsulfonyl)-2-(4-cyano-2,6-diisopropylphenyl)acetamide], the IC50 lay in the range of 5 to 15 µM.

With `CC(C)c1cc(F)cc(C(C)C)c1CC(=O)NS(=O)(=O)c1cc(-c2ccccc2)cc(C(C)(C)O)c1` [Example 32, 2-(4-fluoro-2,6-diisopropylphenyl)-N-(5-(2-hydroxypropan-2-yl)biphenyl-3-ylsulfonyl)acetamide], the IC50 lay in the range of 5 to 15 µM. Consider `CC(C)c1cc(C#N)cc(C(C)C)c1CC(=O)NS(=O)(=O)c1cc(-c2ccccc2)cc(C(C)(C)O)c1` [Example 33, 2-(4-cyano-2,6-diisopropylphenyl)-N-(5-(2-hydroxypropan-2-yl)biphenyl-3-ylsulfonyl)acetamide], for which the IC50 was in the range of 5 to 15 µM. `CC(C)c1cc(F)cc(C(C)C)c1CC(=O)NS(=O)(=O)c1ccc(C(C)(C)O)cc1` [Example 34, 2-(4-fluoro-2,6-diisopropylphenyl)-N-(4-(2-hydroxypropan-2-yl)phenylsulfonyl)acetamide]: the IC50 was in the range of 1 to 5 µM. `CC(C)c1cc(C#N)cc(C(C)C)c1CC(=O)NS(=O)(=O)c1ccc(C(C)(C)O)cc1` [Example 35, 2-(4-cyano-2,6-diisopropylphenyl)-N-(4-(2-hydroxypropan-2-yl)phenylsulfonyl)acetamide]: the IC50 was in the range of 1 to 5 µM. Consider `CC(C)c1cc(F)cc(C(C)C)c1CC(=O)NS(=O)(=O)c1ccc(C(C)(C)O)nc1` [Example 36, 2-(4-fluoro-2,6-diisopropylphenyl)-N-(6-(2-hydroxypropan-2-yl)pyridin-3-ylsulfonyl)acetamide], for which the IC50 lay within 1 to 5 µM. Same read-out and setting: as for `CC(C)c1cc(C#N)cc(C(C)C)c1CC(=O)NS(=O)(=O)c1ccc(C(C)(C)O)nc1` [Example 37, 2-(4-cyano-2,6-diisopropylphenyl)-N-(6-(2-hydroxypropan-2-yl)pyridin-3-ylsulfonyl)acetamide], the figure is 5 to 15 µM; as for `CC(C)c1cc(F)cc(C(C)C)c1CC(=O)NS(=O)(=O)c1cc(N2CCOCC2)cc(C(C)(C)O)c1` [Example 38, 2-(4-fluoro-2,6-diisopropylphenyl)-N-(3-(2-hydroxypropan-2-yl)-5-morpholinophenylsulfonyl)acetamide], 5 to 15 µM; as for `CC(C)c1cc(F)cc(C(C)C)c1CC(=O)NS(=O)(=O)c1cnc2ccccc2c1` [Example 40, 2-(4-fluoro-2,6-diisopropylphenyl)-N-(quinolin-3-ylsulfonyl)acetamide], 15 to 60 µM. Same read-out and setting: as for `CC(C)c1cc(F)cc(C(C)C)c1CC(=O)NS(=O)(=O)c1cc2ccccc2o1` [Example 41, N-(benzofuran-2-ylsulfonyl)-2-(4-fluoro-2,6-diisopropylphenyl)acetamide], the figure is 5 to 15 µM; as for `CC(C)c1ccc(F)c(C(C)C)c1CC(=O)NS(=O)(=O)c1cccc(C(C)(C)O)c1` [Example 42, 2-(3-fluoro-2,6-diisopropylphenyl)-N-(3-(2-hydroxypropan-2-yl)phenylsulfonyl)acetamide], 5 to 15 µM; as for `CC(C)c1ccc(F)c(C(C)C)c1CC(=O)NS(=O)(=O)c1ccc(C(C)(C)O)cc1` [Example 43, 2-(3-fluoro-2,6-diisopropylphenyl)-N-(4-(2-hydroxypropan-2-yl)phenylsulfonyl)acetamide], 1 to 5 µM. Consider `Cc1c(C(C)(C)O)cccc1S(=O)(=O)NC(=O)Cc1c(C(C)C)cc(F)cc1C(C)C` [Example 44, 2-(4-fluoro-2,6-diisopropylphenyl)-N-(3-(2-hydroxypropan-2-yl)-2-methylphenylsulfonyl)acetamide], for which the IC50 lay in the range of 5 to 15 µM. On the same count and under the same terms, as for `Cc1ccc(S(=O)(=O)NC(=O)Cc2c(C(C)C)cc(F)cc2C(C)C)cc1C(C)(C)O` [Example 45, 2-(4-fluoro-2,6-diisopropylphenyl)-N-(3-(2-hydroxypropan-2-yl)-4-methylphenylsulfonyl)acetamide], the figure is 1 to 5 µM. For `Cc1cc(C(C)(C)O)cc(S(=O)(=O)NC(=O)Cc2c(C(C)C)cc(F)cc2C(C)C)c1` [Example 46, 2-(4-fluoro-2,6-diisopropylphenyl)-N-(3-(2-hydroxypropan-2-yl)-5-methylphenylsulfonyl)acetamide], the IC50 lay in the range of 1 to 5 µM. For `Cc1cc(S(=O)(=O)NC(=O)Cc2c(C(C)C)cc(F)cc2C(C)C)ccc1C(C)(C)O` [Example 47, 2-(4-fluoro-2,6-diisopropylphenyl)-N-(4-(2-hydroxypropan-2-yl)-3-methylphenylsulfonyl)acetamide], the IC50 lay in the range of 1 to 5 µM.

On to `Cc1cc(C(C)(C)O)ccc1S(=O)(=O)NC(=O)Cc1c(C(C)C)cc(F)cc1C(C)C` [Example 48, 2-(4-fluoro-2,6-diisopropylphenyl)-N-(4-(2-hydroxypropan-2-yl)-2-methylphenylsulfonyl)acetamide], for which the IC50 is below 1 µM. As for `CC(C)c1cc(F)cc(C(C)C)c1CC(=O)NS(=O)(=O)c1cccc(C(C)(C)O)c1F` [Example 50, 2-(4-fluoro-2,6-diisopropylphenyl)-N-(2-fluoro-3-(2-hydroxypropan-2-yl)phenylsulfonyl)acetamide], the IC50 was 1 to 5 µM. Take `CC(C)c1cc(F)cc(C(C)C)c1CC(=O)NS(=O)(=O)c1cc(F)cc(C(C)(C)O)c1` [Example 51, 2-(4-fluoro-2,6-diisopropylphenyl)-N-(3-fluoro-5-(2-hydroxypropan-2-yl)phenylsulfonyl)acetamide]: the IC50 lay in the range of 5 to 15 µM.

For the compound `CC(C)c1cc(F)cc(C(C)C)c1CC(=O)NS(=O)(=O)c1cc(C(C)(C)O)ccc1F` [Example 52, 2-(4-fluoro-2,6-diisopropylphenyl)-N-(2-fluoro-5-(2-hydroxypropan-2-yl)phenylsulfonyl)acetamide], the IC50 is 1 to 5 µM. For `CC(C)c1cc(F)cc(C(C)C)c1CC(=O)NS(=O)(=O)c1ccc(C(C)(C)O)c(F)c1` [Example 53, 2-(4-fluoro-2,6-diisopropylphenyl)-N-(3-fluoro-4-(2-hydroxypropan-2-yl)phenylsulfonyl)acetamide], the IC50 is below 1 µM.

The assay is the same for the next values; noted with them: hTHP-1 assay containing 2% bovine serum; Table 12, by Example #; read-out: Average IC50 of compounds in hTHP-1 assay.
With `CC(C)c1cc(F)cc(C(C)C)c1CC(=O)NS(=O)(=O)c1ccc(S(F)(F)(F)(F)F)cc1` [Example 39], the IC50 fell in the range of 15 to 60 µM.
